Reference: patent US6806249B2, “Perfume containing surfactant compositions having perfume burst when diluted” (Unilever Home & Personal Care USA, a division of Conopco, priority 2002, dated 2004)
Where two headings read alike, the source gives them in different places. Marks after values point to notes of the source that are not given here.

How the values were obtained:
[1] = Dilution behaviour of components of a twelve-component perfume mixture in 5 wt. % sodium laurate, normalized GC headspace (FIG. 9); assay type: physicochemical; conditions: component of perfume mixture in 5 wt. % sodium laurate
Procedure: A typical fully formulated perfume used in a commercial product, e.g., personal wash formulation, usually is a multi-component composition in which the properties of each perfume component can vary dramatically. A typical perfume mixture in a 5 wt. % sodium laurate formulation was tested for its “perfume burst” behaviour upon dilution. The PBI values of the components in this perfume mixture vary from a large negative number (e.g., benzyl acetate, PBI=−819; PEA, PBI=−200 in sodium laurate solution) to a large positive number (e.g., gamma-methyl-ionone, PBI=1,677 in sodium laurate solution). The dilution behaviour of each component in this perfume mixture is shown in FIG. 9 (the graph represents a normalized GC measurement so the amount of burst of each molecule is clearly indicated). In this perfume mixture of twelve components, the dilution behaviour of each component is different. Each component has a unique dilution curve (GC headspace vs. dilution factor) governed by the factors (hydrophobicity, volatility, etc) discussed previously. […] For those perfumes with a moderate positive PBI (e.g., limonene, PBI=12; p-cymene=12.2 in sodium laurate solution), the perfume headspaces increases 1-2 times upon dilution.

[2] = Critical micellization concentration (CMC) of surfactants; assay type: physicochemical; conditions: no reference given
Excerpt: As noted, the perfume burst is affected not only by the perfume properties, but also by properties of the formulation in which the perfume is found. Thus, the number and type of surfactant micelles found in a surfactant solution also has an effect. […] The critical micellization concentration is defined as the surfactant concentration at which micelles begin to form from unassociated surfactant monomers (M. J. Rosen, Surfactants and Interfacial Phenomena, 2nd Ed., 1989). Conversely, in a surfactant with low critical micelle concentration (e.g., one where micelles do form easily or, stated differently, don't break apart as readily once formed), a perfume, being generally more hydrophobic, tends to stay in the surfactant more readily. As a result, the perfume will tend not to “burst” (increase perfume headspace) as readily and, to achieve more headspace, more dilution may be required. The CMC of the surfactant system also affects “perfume burst”. Thus, for example, a surfactant system of relatively low CMC (e.g., sodium lauryl ether sulfate, also known as SLES) lowers the PBI and can greatly reduce the expected “perfume burst” on dilution. By contrast, surfactant systems of relatively higher CMC (e.g., sodium laurate compared to SLES) would raise PBI and can thus increase “perfume burst” on dilution.

[3] = Fragrance burst in shower liquids with surfactants of different CMC (FIG. 8); assay type: physicochemical; conditions: 5% sodium laureth sulfate (CMC=0.0011 wt/wt) compared with 5% sodium laurate (CMC=0.005 wt/wt)
Procedure: Limonene and γ-Methyl lonone were tested in two different shower liquid samples. One product was formulated with 5% sodium laurate (CMC=0.005 wt/wt) and the second with 5% sodium laureth sulfate (CMC=0.0011 wt/wt) (FIG. 8).

[4] = Fragrance burst in shower liquids with different sodium laurate concentrations (FIG. 6); assay type: physicochemical; conditions: 5% sodium laurate product compared with 10, 15 (and 20) wt.%
Procedure: Limonene (PBI=12.2) was tested in shower liquids containing sodium laurate at 5, 10, 15 and 20 wt.%, γ-Methyl lonone and menthone were tested in sodium laurate at 5, 10 and 15 wt.% (FIG. 6).

[5] = 50° C.; cited from earlier work

Compound: CC(=O)OCc1ccccc1 [Benzyl Acetate]
- perfume headspace behaviour upon dilution [1]: decrease upon dilution

Compound: CCCCCCCC(=O)NCCC[N+](C)(C)CC(=O)[O-] [Caprylamidopropyl betaine]
- CMC [2]: 0.00032 wt./wt.

Compound: C=C(C)[C@H]1CC=C(C)CC1 [Limonene]
- overall fragrance burst [3]: lower overall fragrance burst
- dilutions needed to reach maximum fragrance burst [4]: reached with fewer dilutions in the 5% soap product

Compound: CC(C)[C@@H]1CC[C@@H](C)CC1=O [Menthone]
- dilutions needed to reach maximum fragrance burst [4]: reached with fewer dilutions in the 5% soap product

Compound: CC(=O)/C(C)=C/C1C(C)=CCCC1(C)C (stereo not shown) [γ-methyl ionone]
- overall fragrance burst [3]: lower overall fragrance burst
- perfume headspace behaviour upon dilution [1]: as high as seven times
- dilutions needed to reach maximum fragrance burst [4]: reached with fewer dilutions in the 5% soap product

Compound: Sodium laureth sulfonate (2EO)
- CMC [5]: 0.0011*** wt./wt.

Compound: Sodium laureth sulfonate (3EO)
- CMC [5]: 0.00084*** wt./wt.
